Reference: patent US11319306B2, “Compositions and methods for treating neurodegenerative diseases” (Azevan Pharmaceuticals, Inc., priority 2014, dated 2022)

Biological target: T1, human V1a receptor (Homo sapiens, UniProt P37288)
T1 construct: host or cells: CHO cells (hV1a cell line)
Test: Human vasopressin V1a receptor binding assay (3H-AVP competition, hV1a CHO cells)
Conditions: 3H-AVP competition, CHO cells expressing human V1a; for IC50: read-out: V1a Binding Affinity IC50; for Ki: read-out: V1a Ki
Experimental: Human vasopression V1a receptor binding assay. A cell line expressing the human V1a receptor in CHO cells (henceforth referred to as the hV1a cell line) was obtained from Dr. Michael Brownstein, NIMH, Bethesda, Md., USA. The hV1a cDNA sequence is described by Thibonnier et al., Journal of Biological Chemistry, 269, 3304-3310 (1994), and the expression method was the same as described by Morel et al. (1992). The hV1a cell line was grown in alpha-MEM with 10% fetal bovine serum and 250 ug/ml G418 (Gibco, Grand Island, N.Y., USA). For competitive binding assay, hV1a cells were plated into 6-well culture plate at 1:10 dilution from a confluency flask, and maintained in culture for at least two days. Culture medium was then removed, cells were washed with 2 ml binding buffer (25 mM Hepes, 0.25% BSA, 1×DMEM, PH=7.0). To each well, 990 μl binding buffer containing InM 3H-AVP was added, and followed by 10 μl series diluted Example compounds dissolved in DMSO. […] 100 nM cold AVP (Sigma) was used to assess non-specific binding. Cells were incubated for 45 minutes at 37° C., assay mixture was removed and each well was washed three times with PBS (pH=7.4). 1 ml 2% SDS was added per well and plates were let sit for 30 minutes. The whole content in a well was transferred to a scintillation vial. Each well was rinsed with 0.5 ml PBS which was then added to the corresponding vial. Scintillation fluid (Ecoscint, National Diagnostics, Atlanta, Ga.) was then added at 3 ml per vial. Samples were counted in a liquid scintillation counter (Beckman LS3801). IC50 values were calculated by Prism Curve fitting software.
All of the alkanedioic esters and amides exemplified in the foregoing examples dissolved in DMSO were tested in this assay. Binding curves were generated according to methods described by Thibonnier et al. (1994). [^3H]-AVP was added to the hV1a cell cultures followed by 10-fold dilutions of each test compound.

T1 sequence (P37288 whole entry): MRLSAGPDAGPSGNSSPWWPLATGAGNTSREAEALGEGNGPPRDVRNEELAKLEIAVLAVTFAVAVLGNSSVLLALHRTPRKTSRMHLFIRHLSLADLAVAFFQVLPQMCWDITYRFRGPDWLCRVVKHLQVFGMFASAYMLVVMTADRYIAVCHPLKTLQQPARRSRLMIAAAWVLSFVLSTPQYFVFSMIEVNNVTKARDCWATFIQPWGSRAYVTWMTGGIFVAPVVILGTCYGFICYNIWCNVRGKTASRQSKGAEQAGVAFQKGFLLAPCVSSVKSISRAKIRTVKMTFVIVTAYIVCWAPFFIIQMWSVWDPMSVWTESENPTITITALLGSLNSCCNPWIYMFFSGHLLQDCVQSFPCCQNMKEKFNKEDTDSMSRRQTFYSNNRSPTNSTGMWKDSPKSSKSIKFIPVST

Compound	IC50	Ki
CCN1CCN(C(=O)CCC(C(=O)NCc2cccc(C(F)(F)F)c2)N2C(=O)C(N3C(=O)OCC3c3ccccc3)C2C(Cl)=Cc2ccccc2)CC1 (stereo not drawn) [Example 228]	13.6 nM	8.35 nM
CCCCN1CCN(C(=O)CCC(C(=O)NCc2cccc(C(F)(F)F)c2)N2C(=O)C(N3C(=O)OCC3c3ccccc3)C2C(Cl)=Cc2ccccc2)CC1 (stereo not drawn) [Example 229]	1.53 nM	0.94 nM
CCCCN1CCN(C(=O)CCC(C(=O)NCc2cccc(C(F)(F)F)c2)N2C(=O)C(N3C(=O)OCC3c3ccccc3)C2C(Br)=Cc2ccccc2)CC1 (stereo not drawn) [Example 230L]	12.7 nM	7.8 nM
CC(C)N1CCN(C(=O)CCC(C(=O)NCc2cccc(C(F)(F)F)c2)N2C(=O)C(N3C(=O)OCC3c3ccccc3)C2C(Cl)=Cc2ccccc2)CC1 (stereo not drawn) [Example 230]	7.07 nM	4.33 nM
O=C(C(COCc1ccccc1)N1C(=O)C(N2C(=O)OCC2c2ccccc2)C1C=Cc1ccccc1)N1CCN(C2CCCCC2)CC1 (stereo not drawn) [Example 232D]	2.04 nM	1.25 nM
O=C([C@@H](COCc1ccccc1)N1C(=O)[C@@H](N2C(=O)OC[C@@H]2c2ccccc2)[C@H]1/C=C/c1ccccc1)N1CCC(CN2CCCCC2)CC1 [Example 232E]	0.28 nM	0.17 nM
O=C(C(COCc1ccccc1)N1C(=O)C(N2C(=O)OCC2c2ccccc2)C1C=Cc1ccccc1)N1CCC(N2CCCCC2)CC1 (stereo not drawn) [Example 232]	1.37 nM	0.84 nM
O=C(C(COCc1ccccc1)N1C(=O)C(N2C(=O)OCC2c2ccccc2)C1C=Cc1ccccc1)N1CCC(CCN2CCCCC2)CC1 (stereo not drawn) [Example 233]	0.56 nM	0.34 nM
O=C([C@@H](CSCc1ccccc1)N1C(=O)[C@@H](N2C(=O)OC[C@@H]2c2ccccc2)[C@H]1/C=C/c1ccccc1)N1CCC(CCN2CCCCC2)CC1 [Example 238, (2S)-(Benzylthiomethyl)-2-[3(S)-(4(S)-phenyloxazolidin-2-on-3-yl)-4(R)-(2-styryl)azetidin-2-on-1-yl]acetic acid N-[4-[2-(piperid-1-yl)ethyl]piperidin-1-yl]amide]	0.11 nM	0.07 nM
CCN1CCN(C(=O)CC[C@@H](C(=O)NC2(c3ccccc3)CCCC2)N2C(=O)[C@@H](N3C(=O)OC[C@@H]3c3ccccc3)[C@H]2/C=C/c2ccccc2)CC1 [Example 239]	6.6 nM	4 nM
O=C(NC1(c2ccccc2)CCCC1)[C@H](CCC(=O)N1CCN(Cc2ccccc2)CC1)N1C(=O)[C@@H](N2C(=O)OC[C@@H]2c2ccccc2)[C@H]1/C=C/c1ccccc1 [Example 240]	25 nM	15.5 nM
O=C(N[C@@H]1CCCc2ccccc21)[C@H](CCC(=O)N1CCN(C2CCCC2)CC1)N1C(=O)[C@@H](N2C(=O)OC[C@@H]2c2ccccc2)[C@H]1/C=C/c1ccccc1 [Example 241]	2 nM	1.24 nM
COc1cccc(/C=C/[C@@H]2[C@H](N3C(=O)OC[C@@H]3c3ccccc3)C(=O)N2[C@@H](CCC(=O)N2CCN(C3CCCCC3)CC2)C(=O)N[C@@H]2CCCc3ccccc32)c1 [Example 242]	2.2 nM	1.36 nM
O=C(N[C@@H]1CCCc2ccccc21)[C@H](CCC(=O)N1CCN(C2CCCCC2)CC1)N1C(=O)[C@@H](N2C(=O)OC[C@@H]2c2ccccc2)[C@H]1/C=C/c1cccc(Cl)c1 [Example 243]	0.5 nM	0.3 nM
O=C(NC1(c2ccccc2)CCCC1)[C@H](CCC(=O)N1CCN(C2CCCCC2)CC1)N1C(=O)[C@@H](N2C(=O)OC[C@@H]2c2ccccc2)[C@H]1/C=C/c1cccc(Cl)c1 [Example 244]	3.4 nM	2.1 nM
O=C(N[C@@H]1CCCc2ccccc21)[C@H](CCC(=O)N1CCN(C2CCCCC2)CC1)N1C(=O)[C@@H](N2C(=O)OC[C@@H]2c2ccccc2)[C@H]1/C=C/c1cccc(F)c1 [Example 245]	1.1 nM	0.68 nM
O=C(N[C@@H]1CCCc2ccccc21)[C@H](CCC(=O)N1CCN(C2CCCCC2)CC1)N1C(=O)[C@@H](N2C(=O)OC[C@@H]2c2ccccc2)[C@H]1/C=C/c1cccc(C(F)(F)F)c1 [Example 246]	2.1 nM	1.3 nM
N#Cc1cccc(/C=C/[C@@H]2[C@H](N3C(=O)OC[C@@H]3c3ccccc3)C(=O)N2[C@@H](CCC(=O)N2CCN(C3CCCCC3)CC2)C(=O)N[C@@H]2CCCc3ccccc32)c1 [Example 248]	5.3 nM	3.3 nM
O=C(N[C@@H]1CCCc2ccccc21)[C@H](CCC(=O)N1CCN(C2CCCCC2)CC1)N1C(=O)[C@@H](N2C(=O)OC[C@@H]2c2ccccc2)[C@H]1/C=C/c1cccc([N+](=O)[O-])c1 [Example 249]	1.7 nM	1 nM
O=C(N[C@@H]1CCCc2ccccc21)[C@H](CCC(=O)N1CCN(C2CCCCC2)CC1)N1C(=O)[C@@H](N2C(=O)OC[C@@H]2c2ccccc2)[C@H]1/C=C/c1ccccc1Cl [Example 250]	6.5 nM	4 nM
O=C(N[C@@H]1CCCc2ccccc21)[C@H](CCC(=O)N1CCN(C2CCCCC2)CC1)N1C(=O)[C@@H](N2C(=O)OC[C@@H]2c2cccc(Cl)c2)[C@H]1/C=C/c1cccc(Cl)c1 [Example 251]	0.5 nM	0.3 nM
O=C(N[C@@H]1CCCc2ccccc21)[C@H](CCC(=O)N1CCN(C2CCCCC2)CC1)N1C(=O)[C@@H](N2C(=O)OC[C@@H]2c2ccccc2)[C@H]1/C=C/c1cc(Cl)cc(Cl)c1 [Example 252]	1.8 nM	1.1 nM
CC(NC(=O)C(CC(=O)N1CCC(N2CCCCC2)CC1)N1C(=O)C(N2C(=O)OCC2c2ccccc2)C1C=Cc1cccc(Cl)c1)c1ccccc1 (stereo not drawn) [Example 559]	0.12 nM	0.073 nM
CC(NC(=O)C(CC(=O)N1CCC(CN2CCCCC2)CC1)N1C(=O)C(N2C(=O)OCC2c2ccccc2)C1C=Cc1ccccc1)c1ccccc1 (stereo not drawn) [Example 601]	1 nM	0.62 nM
CC(NC(=O)C(CC(=O)N1CCC(N2CCCCC2)CC1)N1C(=O)C(N2C(=O)OCC2c2ccccc2)C1C=Cc1cccc(Br)c1)c1ccccc1 (stereo not drawn) [Example 606]	0.53 nM	0.32 nM
CC(NC(=O)C(CC(=O)N1CCC([N+]2([O-])CCCCC2)CC1)N1C(=O)C(N2C(=O)OCC2c2ccccc2)C1C=Cc1ccccc1)c1ccccc1 (stereo not drawn) [Example 672]		1.1 nM
O=C(NCc1ccccc1F)C(CC(=O)N1CCC(N2CCCCC2)CC1)N1C(=O)C(N2C(=O)OCC2c2ccccc2)C1C=Cc1ccccc1 (stereo not drawn) [Example 677]		3 nM
(2S)-[(4-cyclohexylpiperazinyl)carbonylethyl]-2-[3(S)-(4(S)-phenyloxazolidin-2-on-3-yl)-4(R)-(2-phenyleth-1-yl)azetidin-2-on-1-yl]acetic acid N—[(R)-1,2,3,4-tetrahydronaphth-1-yl]amide [Example 236A]	9 nM	5.5 nM
